Results on 3 molecules are retold here after patent US12479847B2 (DANA-FARBER CANCER INSTITUTE, INC., priority 2019, dated 2025).

What all share (assay): KINOMEscan (ScanMAX) kinase profiling
Common to all, as to assay type: binding

Experiment [1] concerns the target T1, panel of 468 kinases (Homo sapiens, UniProt Q13188).
T1 construct: purchased KINOMEscan (ScanMAX) service
T1 sequence (Q13188 1-491): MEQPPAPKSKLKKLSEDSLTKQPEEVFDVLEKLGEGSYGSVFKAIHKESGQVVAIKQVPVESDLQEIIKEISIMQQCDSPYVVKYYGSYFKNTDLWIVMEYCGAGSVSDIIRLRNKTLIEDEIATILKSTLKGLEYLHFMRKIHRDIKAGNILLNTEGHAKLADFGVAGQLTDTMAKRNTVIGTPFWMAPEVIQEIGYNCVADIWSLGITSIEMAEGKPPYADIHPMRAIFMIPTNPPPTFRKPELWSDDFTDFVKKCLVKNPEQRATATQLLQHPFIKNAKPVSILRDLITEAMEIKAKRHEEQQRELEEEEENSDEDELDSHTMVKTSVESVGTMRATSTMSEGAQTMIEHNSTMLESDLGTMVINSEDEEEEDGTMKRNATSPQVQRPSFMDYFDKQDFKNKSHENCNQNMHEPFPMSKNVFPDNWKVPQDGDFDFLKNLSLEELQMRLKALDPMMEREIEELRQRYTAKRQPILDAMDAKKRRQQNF
The note with it: MST2; 1 μM; read-out: % control.

In experiment [2] the target is T2, panel of 468 kinases (Homo sapiens, UniProt O75385).
T2 construct: purchased KINOMEscan (ScanMAX) service
T2 sequence (O75385 1-1050): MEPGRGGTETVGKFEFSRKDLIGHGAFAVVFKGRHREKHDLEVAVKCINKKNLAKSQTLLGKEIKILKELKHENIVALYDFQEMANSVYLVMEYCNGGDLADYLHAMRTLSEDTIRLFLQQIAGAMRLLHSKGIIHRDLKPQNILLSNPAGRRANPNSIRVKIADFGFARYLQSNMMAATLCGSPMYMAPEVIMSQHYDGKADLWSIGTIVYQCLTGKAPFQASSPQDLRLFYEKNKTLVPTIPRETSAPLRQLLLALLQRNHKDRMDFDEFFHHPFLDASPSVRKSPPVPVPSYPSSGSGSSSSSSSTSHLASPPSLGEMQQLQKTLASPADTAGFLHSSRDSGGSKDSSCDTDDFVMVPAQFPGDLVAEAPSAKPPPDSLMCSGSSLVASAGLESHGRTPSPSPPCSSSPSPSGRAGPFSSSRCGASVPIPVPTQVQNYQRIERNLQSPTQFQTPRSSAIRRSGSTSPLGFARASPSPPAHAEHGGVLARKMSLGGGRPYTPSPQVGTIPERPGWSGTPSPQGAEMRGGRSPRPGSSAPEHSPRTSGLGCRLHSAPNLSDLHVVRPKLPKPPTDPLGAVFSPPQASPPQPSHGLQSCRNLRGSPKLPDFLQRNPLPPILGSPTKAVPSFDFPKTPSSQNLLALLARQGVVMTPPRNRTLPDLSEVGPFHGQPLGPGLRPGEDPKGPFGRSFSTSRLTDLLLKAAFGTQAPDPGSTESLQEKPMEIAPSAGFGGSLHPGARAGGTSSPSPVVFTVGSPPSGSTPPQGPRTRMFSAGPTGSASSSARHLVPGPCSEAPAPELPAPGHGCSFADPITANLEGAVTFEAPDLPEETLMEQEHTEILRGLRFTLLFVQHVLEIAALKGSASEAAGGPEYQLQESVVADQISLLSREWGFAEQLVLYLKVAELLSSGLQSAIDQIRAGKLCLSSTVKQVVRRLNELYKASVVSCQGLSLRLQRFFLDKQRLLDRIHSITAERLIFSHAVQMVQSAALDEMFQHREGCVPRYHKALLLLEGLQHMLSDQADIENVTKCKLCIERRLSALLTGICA
The settings on record: ULK1; 1 μM; read-out: % control.

For experiment [3], the target named is T3, panel of 468 kinases (Homo sapiens, UniProt P49760).
T3 construct: purchased KINOMEscan (ScanMAX) service
The settings on record: CLK2; 1 μM; read-out: % control.

The target of experiment [4] is T4, panel of 468 kinases (Homo sapiens, UniProt O75116).
T4 construct: purchased KINOMEscan (ScanMAX) service
The settings on record: ROCK2; 1 μM; read-out: % control.

The target in experiment [5] is T5, panel of 468 kinases (Homo sapiens, UniProt P35968).
T5 construct: purchased KINOMEscan (ScanMAX) service
The settings on record: VEGFR2; 1 μM; read-out: % control.

Experiment [6] deals with T6, panel of 468 kinases (Homo sapiens, UniProt P42345).
T6 construct: purchased KINOMEscan (ScanMAX) service
The settings on record: MTOR; 1 μM; read-out: % control.

Experiment [7] has as its target T7, panel of 468 kinases (Homo sapiens, UniProt P42685).
T7 construct: purchased KINOMEscan (ScanMAX) service
The settings on record: FRK; 1 μM; read-out: % control.

The target in experiment [8] is T8, panel of 468 kinases (Homo sapiens, UniProt Q15375).
T8 construct: purchased KINOMEscan (ScanMAX) service
The note with it: EPHA7; 1 μM; read-out: % control.

The target in experiment [9] is T9, panel of 468 kinases (Homo sapiens, UniProt Q8N4C8).
T9 construct: purchased KINOMEscan (ScanMAX) service
The settings on record: MINK; 1 μM; read-out: % control.

T7 sequence (P42685 whole entry): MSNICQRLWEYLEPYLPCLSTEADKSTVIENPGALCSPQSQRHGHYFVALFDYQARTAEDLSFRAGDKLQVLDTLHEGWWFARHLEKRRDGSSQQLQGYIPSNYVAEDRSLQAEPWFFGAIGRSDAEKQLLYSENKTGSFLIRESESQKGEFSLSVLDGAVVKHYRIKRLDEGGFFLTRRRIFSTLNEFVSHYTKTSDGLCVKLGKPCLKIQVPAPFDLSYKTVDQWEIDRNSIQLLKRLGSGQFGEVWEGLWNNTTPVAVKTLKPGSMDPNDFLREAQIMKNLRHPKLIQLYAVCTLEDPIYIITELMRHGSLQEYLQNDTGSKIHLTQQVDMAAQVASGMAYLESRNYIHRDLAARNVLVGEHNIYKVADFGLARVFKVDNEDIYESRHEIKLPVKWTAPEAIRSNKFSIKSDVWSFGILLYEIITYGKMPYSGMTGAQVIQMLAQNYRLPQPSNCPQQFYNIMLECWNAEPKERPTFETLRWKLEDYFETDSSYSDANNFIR
T8 sequence (Q15375 28-998): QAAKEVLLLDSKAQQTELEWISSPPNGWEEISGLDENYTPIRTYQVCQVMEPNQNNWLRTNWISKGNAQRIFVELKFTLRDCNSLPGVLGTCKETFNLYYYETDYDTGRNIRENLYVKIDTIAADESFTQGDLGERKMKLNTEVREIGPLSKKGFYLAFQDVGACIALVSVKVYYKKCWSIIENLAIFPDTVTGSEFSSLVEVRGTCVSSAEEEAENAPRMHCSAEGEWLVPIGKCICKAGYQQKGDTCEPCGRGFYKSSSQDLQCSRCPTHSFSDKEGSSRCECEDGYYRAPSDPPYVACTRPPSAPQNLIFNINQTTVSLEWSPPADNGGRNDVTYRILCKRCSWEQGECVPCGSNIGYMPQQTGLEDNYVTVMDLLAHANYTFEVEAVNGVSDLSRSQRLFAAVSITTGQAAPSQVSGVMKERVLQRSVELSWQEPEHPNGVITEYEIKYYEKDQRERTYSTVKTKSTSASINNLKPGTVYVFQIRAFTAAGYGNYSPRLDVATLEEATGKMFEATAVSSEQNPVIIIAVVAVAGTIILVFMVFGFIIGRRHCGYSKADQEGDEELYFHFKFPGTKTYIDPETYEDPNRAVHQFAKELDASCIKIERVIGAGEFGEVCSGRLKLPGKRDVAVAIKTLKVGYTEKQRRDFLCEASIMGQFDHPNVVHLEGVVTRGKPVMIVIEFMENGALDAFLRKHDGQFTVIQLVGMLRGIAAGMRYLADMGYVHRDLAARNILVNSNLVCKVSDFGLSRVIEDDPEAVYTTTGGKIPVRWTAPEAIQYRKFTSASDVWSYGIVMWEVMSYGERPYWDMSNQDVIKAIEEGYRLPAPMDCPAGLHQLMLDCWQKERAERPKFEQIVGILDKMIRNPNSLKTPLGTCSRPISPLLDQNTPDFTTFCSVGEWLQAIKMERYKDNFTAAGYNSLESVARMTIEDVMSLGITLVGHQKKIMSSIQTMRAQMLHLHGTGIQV
T9 sequence (Q8N4C8 whole entry): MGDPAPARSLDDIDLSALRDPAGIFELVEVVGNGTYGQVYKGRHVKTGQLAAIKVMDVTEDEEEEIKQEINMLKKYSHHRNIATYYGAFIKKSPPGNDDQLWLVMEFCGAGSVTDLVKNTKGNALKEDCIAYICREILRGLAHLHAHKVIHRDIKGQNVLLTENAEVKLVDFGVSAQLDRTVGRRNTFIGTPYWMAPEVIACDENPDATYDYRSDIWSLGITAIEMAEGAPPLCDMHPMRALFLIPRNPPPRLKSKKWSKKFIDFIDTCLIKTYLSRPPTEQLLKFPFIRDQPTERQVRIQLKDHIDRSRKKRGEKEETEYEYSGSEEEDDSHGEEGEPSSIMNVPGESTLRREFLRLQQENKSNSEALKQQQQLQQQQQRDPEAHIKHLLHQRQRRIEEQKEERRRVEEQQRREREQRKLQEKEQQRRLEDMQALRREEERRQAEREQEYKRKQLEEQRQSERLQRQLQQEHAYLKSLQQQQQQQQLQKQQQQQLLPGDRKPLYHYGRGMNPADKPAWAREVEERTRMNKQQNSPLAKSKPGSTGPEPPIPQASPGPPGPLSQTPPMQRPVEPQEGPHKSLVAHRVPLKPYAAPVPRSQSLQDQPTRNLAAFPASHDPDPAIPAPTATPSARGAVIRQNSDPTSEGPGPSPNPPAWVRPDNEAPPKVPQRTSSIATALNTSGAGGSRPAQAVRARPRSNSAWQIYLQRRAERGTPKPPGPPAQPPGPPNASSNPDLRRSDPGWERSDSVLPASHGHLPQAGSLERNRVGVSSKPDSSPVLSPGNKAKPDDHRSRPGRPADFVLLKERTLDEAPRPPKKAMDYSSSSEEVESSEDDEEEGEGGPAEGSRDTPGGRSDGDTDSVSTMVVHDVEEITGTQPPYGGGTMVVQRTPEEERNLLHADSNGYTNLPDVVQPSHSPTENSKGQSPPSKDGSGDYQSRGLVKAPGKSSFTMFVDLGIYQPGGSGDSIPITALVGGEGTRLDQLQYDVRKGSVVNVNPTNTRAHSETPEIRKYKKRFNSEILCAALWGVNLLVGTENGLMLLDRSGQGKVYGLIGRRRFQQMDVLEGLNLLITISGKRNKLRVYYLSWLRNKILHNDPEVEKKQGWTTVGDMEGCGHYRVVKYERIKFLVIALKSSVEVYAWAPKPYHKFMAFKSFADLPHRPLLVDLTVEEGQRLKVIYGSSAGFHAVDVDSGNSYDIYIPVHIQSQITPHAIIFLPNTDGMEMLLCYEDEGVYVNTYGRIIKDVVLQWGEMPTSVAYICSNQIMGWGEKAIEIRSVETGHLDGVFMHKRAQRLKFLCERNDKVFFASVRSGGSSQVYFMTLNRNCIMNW
T4 sequence (O75116 whole entry): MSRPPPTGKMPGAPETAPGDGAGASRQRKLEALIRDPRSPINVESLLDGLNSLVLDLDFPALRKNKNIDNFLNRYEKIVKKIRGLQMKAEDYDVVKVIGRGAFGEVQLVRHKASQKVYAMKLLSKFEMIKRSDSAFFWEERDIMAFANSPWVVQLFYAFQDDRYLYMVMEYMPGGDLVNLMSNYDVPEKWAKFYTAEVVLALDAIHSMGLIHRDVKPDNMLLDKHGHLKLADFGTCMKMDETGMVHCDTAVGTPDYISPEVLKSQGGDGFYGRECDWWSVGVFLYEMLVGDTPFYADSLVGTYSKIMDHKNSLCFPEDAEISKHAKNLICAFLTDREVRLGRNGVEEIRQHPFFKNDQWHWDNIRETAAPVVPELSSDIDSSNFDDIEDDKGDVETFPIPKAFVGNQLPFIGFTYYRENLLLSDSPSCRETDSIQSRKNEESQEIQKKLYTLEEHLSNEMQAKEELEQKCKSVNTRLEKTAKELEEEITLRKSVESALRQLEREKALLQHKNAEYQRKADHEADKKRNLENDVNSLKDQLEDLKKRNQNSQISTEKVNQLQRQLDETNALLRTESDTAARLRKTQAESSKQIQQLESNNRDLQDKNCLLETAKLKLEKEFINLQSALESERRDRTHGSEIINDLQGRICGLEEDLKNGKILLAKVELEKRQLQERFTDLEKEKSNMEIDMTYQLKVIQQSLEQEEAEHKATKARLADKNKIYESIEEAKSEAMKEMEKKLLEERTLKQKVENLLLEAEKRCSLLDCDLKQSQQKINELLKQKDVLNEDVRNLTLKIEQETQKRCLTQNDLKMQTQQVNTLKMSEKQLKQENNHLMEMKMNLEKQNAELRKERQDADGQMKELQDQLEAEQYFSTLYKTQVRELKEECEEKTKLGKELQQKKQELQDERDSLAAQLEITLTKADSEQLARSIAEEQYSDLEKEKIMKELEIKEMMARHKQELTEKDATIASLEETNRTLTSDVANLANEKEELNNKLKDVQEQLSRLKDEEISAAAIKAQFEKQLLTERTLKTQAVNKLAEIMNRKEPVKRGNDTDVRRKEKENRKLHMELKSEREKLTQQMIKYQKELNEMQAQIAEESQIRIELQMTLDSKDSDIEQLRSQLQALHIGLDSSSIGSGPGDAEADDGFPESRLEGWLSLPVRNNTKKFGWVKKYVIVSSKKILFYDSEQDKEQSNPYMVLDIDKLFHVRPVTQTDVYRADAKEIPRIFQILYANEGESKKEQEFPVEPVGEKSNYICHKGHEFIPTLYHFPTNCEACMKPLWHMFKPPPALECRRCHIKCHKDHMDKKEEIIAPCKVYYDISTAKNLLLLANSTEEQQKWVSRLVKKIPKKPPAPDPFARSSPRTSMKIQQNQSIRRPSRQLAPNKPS
T3 sequence (P49760 whole entry): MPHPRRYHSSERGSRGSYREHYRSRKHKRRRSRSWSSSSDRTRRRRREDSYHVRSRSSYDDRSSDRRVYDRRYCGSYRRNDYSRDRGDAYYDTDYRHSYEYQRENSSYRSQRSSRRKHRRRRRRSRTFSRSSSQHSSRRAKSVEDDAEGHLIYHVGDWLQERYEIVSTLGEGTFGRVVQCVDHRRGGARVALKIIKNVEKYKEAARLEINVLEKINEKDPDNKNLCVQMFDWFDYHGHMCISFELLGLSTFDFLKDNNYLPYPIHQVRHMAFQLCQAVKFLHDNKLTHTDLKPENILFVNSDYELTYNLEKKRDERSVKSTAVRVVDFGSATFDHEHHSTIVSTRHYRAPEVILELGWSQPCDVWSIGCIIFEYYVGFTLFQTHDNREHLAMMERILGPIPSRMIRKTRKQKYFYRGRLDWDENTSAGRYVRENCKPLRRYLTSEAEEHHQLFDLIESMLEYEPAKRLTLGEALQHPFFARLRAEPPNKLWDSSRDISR

`CNc1nc(Nc2ccc(C(=O)N3CCC(N4CCOCC4)CC3)c3c2OCO3)nc2[nH]cc(Cl)c12` [Compound 75, (7-((5-chloro-4-(methylamino)-7H-pyrrolo[2,3-d]pyrimidin-2-yl)amino)benzo[d][1,3]dioxol-4-yl)(4-morpholinopiperidin-1-yl)methanone]: the remaining binding at 1 µM in experiment [1] stood at 45%; in experiment [2], 50%; in [3], 21%; in experiment [4], 35%; in [5], 54%; in experiment [6], 79%. Further, the remaining binding at 1 µM in experiment [7] was 100%; in [8], 100%; in [9], 18%.

Take `CNc1nc(Nc2ccc(P3(=O)CCN(C4CCOCC4)CC3)cc2OC)nc2[nH]cc(Cl)c12` [Compound 77, 4-(4-((5-chloro-4-(methylamino)-7H-pyrrolo[2,3-d]pyrimidin-2-yl)amino)-3-methoxyphenyl)-1-(tetrahydro-2H-pyran-4-yl)-1,4-azaphosphinane 4-oxide]: the remaining binding at 1 µM is 100% in [1]; 95% in experiment [2]; 28% in experiment [3]; 96% in experiment [4]; 91% in experiment [5]; 84% in experiment [6]. In addition, the remaining binding at 1 µM in experiment [7] came to 100%; in experiment [8], 100%; in [9], 63%.

Consider `CNc1nc(Nc2ccc(S(=O)(=O)N3CCC(N4CCOCC4)CC3)cc2OC)nc2[nH]cc(Cl)c12` [Compound 12, 5-chloro-N2-(2-methoxy-4-((4-morpholinopiperidin-1-yl)sulfonyl)phenyl)-N4-methyl-7H-pyrrolo[2,3-d]pyrimidine-2,4-diamine], for which the remaining binding at 1 µM in [1] stood at 100%; in experiment [2], 97%; in experiment [3] it was 55%; in experiment [4], 86%; in [5] it was 91%; in experiment [6] it was 67%. The remaining binding at 1 µM turned out to be 100% in experiment [7], 100% in experiment [8] and 75% in experiment [9].
